Results published in patent US20210186972A1, “FORMULATIONS AND METHODS FOR THE PREVENTION AND TREATMENT OF TUMOR METASTASIS AND TUMORIGENESIS” (THE UNITED STATES OF AMERICA, AS REPRESENTED BY THE …, priority 2018, published 2021).

How the values were obtained:
Pol II transcription = Pol II transcription status: CUGBP and SC35 immunolabeling; assay type: cell-based
From the text: To further determine whether metarrestin interferes with Pol II transcription in general, CUGBP was immunolabeled. The steady state nuclear distribution of CUGBP, a multifunctional hnRNP protein highly enriched in the PNC, is dependent upon Pol II transcription.

[1] = Invasion through MATRIGEL, screening hits; assay type: cell-based; details: screening hit
From the text: (§1) A metastatic prostate cancer cell line, PC3M, was developed in order to screen small molecules that effectively disassemble PNCs (see Pettaway, et al., “Selection of highly metastatic variants of different human prostatic carcinomas using orthotopic implantation in nude mice,” Clin. Cancer Res., (2): 1627-36 (1996), incorporated herein in its entirety). PC3M has a […] stably express GFP-PTB (polypyrimidine track binding protein) (FIG. 1, top panels), an essential component of PNCs (see Huang, et al., “The perinucleolar compartment and transcription,” Journal of Cell Biology, (143): 35-47 (1998), incorporated herein in its entirety). Compounds able to reduce PNC prevalence by 50% were filtered in secondary assays to eliminate those that induced apoptosis, DNA damage, generic cytotoxicity, or cell-cycle blockage (see Norton, et al., “Automated high-content screening for compounds that disassemble the perinucleolar compartment,” J Biomol Screen, (14): 1045-53 (2009) and Frankowski, et al., “Discovery and Development of Small Molecules That Reduce PNC Prevalence, in Probe Reports from the NIH Molecular Libraries Program, Bethesda (Md.).(2010), incorporated herein in their entirety). The remaining hits were evaluated for invasion inhibition through MATRIGEL gelatinous protein mixture and anchorage-independent growth inhibition using soft agar assays.

[2] = Cytotoxicity secondary assay of screening hits; assay type: cell-based; details: screening hit
From the text: as §1

PC3M-GFP-PTB cells = assay: PNC prevalence / PNC disassembly in PC3M-GFP-PTB cells; assay type: cell-based, human; details: screening hit
From the text: FIG. 1 is a graph showing the concentration-response curve against PNC prevalence in PC3M (a metastatic prostate cancer cell line)-GFP (green fluorescent protein)-PTB (polypyrimidine tract-binding protein) cells (squares, PC3M, has a PNC prevalence of 75-85% in the absence of treatment) and cytotoxicity as measured by cellular ATP (CELLTITER GLO™) (circles). Representative PTB-GFP images for cells at the indicated concentrations (arrowheads indicate PNCs) (scale bar=5 μm) are shown in the three panels above the graph. The relative signal (%) is along the y-axis and Metarrestin [log M] is along the x-axis.
as §1

[3] = Anchorage-independent growth, soft agar assay of screening hits; assay type: cell-based; details: screening hit
From the text: as §1

PC3M cells = assay: PNC disassembly by biotin-metarrestin in cultured cells; assay type: cell-based, human; details: 1 μM, 24 hours (FIG. 60)
Protocol: FIG. 60 is a set of panels showing the effectiveness of biotin-metarrestin in disassembling PNCs. The effects of metarrestin and biotin-metarrestin were compared in PC3M cells treated at 1 μM or untreated for 24 hours. Arrows indicate PNCs. Scale bar=5 μm.

CC[C@H](C)[C@@H]1NC(=O)CNC(=O)[C@@H]2Cc3c([nH]c4cc(O)ccc34)[S+]([O-])C[C@@H](NC(=O)CNC1=O)C(=O)N[C@@H](CC(N)=O)C(=O)N1C[C@H](O)C[C@H]1C(=O)N[C@@H]([C@@H](C)[C@@H](O)CO)C(=O)N2 (stereo in doubt) [α-amanitin, reference compound]
Localization of CUGBP (Pol II transcription): induces a localization shift to the cytoplasm
SC35 distribution pattern (Pol II transcription): changed to isolated large dots

N=c1c2c(-c3ccccc3)c(-c3ccccc3)n(Cc3ccccc3)c2ncn1CCCO [MLS000556915]
Invasion [1]: ability to block invasion
Cytotoxicity [2]: lack of cytotoxicity
PNC inhibition (PC3M-GFP-PTB cells): potency as a PNC inhibitor
Soft agar growth [3]: soft agar growth inhibitor

N=c1c2c(-c3ccccc3)c(-c3ccccc3)n(Cc3cccc(C#CCCCCNC(=O)CCCC[C@@H]4SC[C@@H]5NC(=O)N[C@@H]54)c3)c2ncn1[C@H]1CC[C@H](O)CC1 [biotin-conjugated metarrestin, N-(6-(3-((3-(trans-4-hydroxycyclohexyl)-4-imino-5,6-diphenyl-3,4-dihydro-7H-pyrrolo[2,3-d]pyrimidin-7-yl)methyl)phenyl)hex-5-yn-1-yl)-5-((3aS,4S,6aR)-2-oxohexahydro-1H-thieno[3,4-d]imidazol-4-yl)pentanamide]
PNC disassembly in cultured cells (PC3M cells): maintains its efficacy for PNC disassembly
